Measured values taken from paper PMC7058083, “Structural basis of ligand binding modes at the human formyl peptide receptor 2” (Nature Communications, 2020).
Changes are numbered by the printed parent chain.

Key:
Test in all cases: Saturation binding of WK(FITC)YMVm, flow cytometry on HEK293F cells
[1] = target: T1, wild-type (WT) and mutant FPR2 (Homo sapiens, UniProt P25090, L164A); settings: FPR2 L164A
T1 construct: expressed in transfected cells; host or cells: HEK293F
T1 sequence (P25090 1-351 L164A): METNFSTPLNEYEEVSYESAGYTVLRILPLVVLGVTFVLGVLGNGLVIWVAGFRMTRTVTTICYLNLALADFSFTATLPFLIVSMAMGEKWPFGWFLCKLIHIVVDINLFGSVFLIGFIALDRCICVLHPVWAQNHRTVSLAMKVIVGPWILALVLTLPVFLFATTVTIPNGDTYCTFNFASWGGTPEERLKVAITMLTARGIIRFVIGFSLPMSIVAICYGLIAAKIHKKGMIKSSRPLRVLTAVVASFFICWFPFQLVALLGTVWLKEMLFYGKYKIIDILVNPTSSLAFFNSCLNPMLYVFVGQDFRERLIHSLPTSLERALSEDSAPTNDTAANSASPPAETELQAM
Protocol: (§1) Flag-tagged wild-type and mutant FPR2s were cloned into the pTT5 vector and expressed in HEK293F cells. The cells were harvested, and washed with Hanks’ Balanced Salt Solution (HBSS) buffer supplemented with 0.5% bovine serum albumin and 20 mM HEPES, pH 7.4. The cells were then resuspended in the same buffer to the final concentration of 1 × 10^6 cells per ml. The cell-surface expression was measured as mentioned above. […] Mean fluorescent intensity of each well was then read by a FCM (flow cytometry) reader (Millipore). […] For competitive binding of fMLFK, cells were plated in 96-well plates (100,000 cells per well), and incubated with WK(FITC)YMVm at 4 °C for 1 h. The following concentrations of WK(FITC)YMVm were used: 10 nM (wild type, L81^2.60F, E89G, and V105^3.32A), 30 nM (D281^7.32G), 40 nM (H102^3.29F, V160^4.60A, L268^ECL3A, N285^7.36A, and F292^7.43A), and 100 nM (L164^4.64A and T177A). Then increasing concentrations of fMLFK (100 nM–1 mM) were added, and incubated for another 1 h on ice. Mean fluorescent intensity values were measured by flow cytometry. Data were analyzed using Prism 7.0.

[2] = target: T2, wild-type (WT) and mutant FPR2 (Homo sapiens, UniProt P25090, F292A); settings: FPR2 F292A
T2 construct: expressed in transfected cells; host or cells: HEK293F
T2 sequence (P25090 1-351 F292A): T1 sequence (P25090 1-351 L164A) with A164L, F292A
Protocol: as §1

[3] = target: T3, wild-type (WT) and mutant FPR2 (Homo sapiens, UniProt P25090, L268A); settings: FPR2 L268A
T3 construct: expressed in transfected cells; host or cells: HEK293F
T3 sequence (P25090 1-351 L268A): T1 sequence (P25090 1-351 L164A) with A164L, L268A
Protocol: as §1

[4] = target: T4, wild-type (WT) and mutant FPR2 (Homo sapiens, UniProt P25090, V105A); settings: FPR2 V105A
T4 construct: expressed in transfected cells; host or cells: HEK293F
T4 sequence (P25090 1-351 V105A): T1 sequence (P25090 1-351 L164A) with V105A, A164L
Protocol: as §1

[5] = target: T5, wild-type (WT) and mutant FPR2 (Homo sapiens, UniProt P25090, L164W); settings: mutation L164W
T5 construct: expressed in transfected cells; host or cells: HEK293F
T5 sequence (P25090 whole entry L164W): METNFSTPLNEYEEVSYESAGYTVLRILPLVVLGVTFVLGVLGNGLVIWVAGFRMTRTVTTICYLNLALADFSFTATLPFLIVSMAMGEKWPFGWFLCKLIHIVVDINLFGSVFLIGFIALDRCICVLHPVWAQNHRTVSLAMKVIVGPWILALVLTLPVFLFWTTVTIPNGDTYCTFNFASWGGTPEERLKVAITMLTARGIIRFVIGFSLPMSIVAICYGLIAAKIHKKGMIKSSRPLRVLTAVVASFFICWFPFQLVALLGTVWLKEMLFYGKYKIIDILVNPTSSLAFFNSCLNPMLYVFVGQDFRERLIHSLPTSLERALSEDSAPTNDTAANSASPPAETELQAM
Protocol: as §1

[6] = target: T6, wild-type (WT) and mutant FPR2 (Homo sapiens, UniProt P25090, D281A); settings: FPR2 D281A
T6 construct: expressed in transfected cells; host or cells: HEK293F
T6 sequence (P25090 whole entry D281A): as the sequence (P25090 whole entry L164W) above, with W164L, D281A counted along it
Protocol: as §1

[7] = target: T7, wild-type (WT) and mutant FPR2 (Homo sapiens, UniProt P25090, R205A); settings: mutant R205A
T7 construct: expressed in transfected cells; host or cells: HEK293F
T7 sequence (P25090 whole entry R205A): as the sequence (P25090 whole entry L164W) above, with W164L, R205A counted along it
Protocol: as §1

[8] = target: T8, wild-type (WT) and mutant FPR2 (Homo sapiens, UniProt P25090, H102F); settings: FPR2 H102F
T8 construct: expressed in transfected cells; host or cells: HEK293F
T8 sequence (P25090 1-351 H102F): T1 sequence (P25090 1-351 L164A) with H102F, A164L
Protocol: as §1

## CSCC[C@H](NC(=O)[C@H](Cc1ccc(O)cc1)NC(=O)[C@H](CCCCNC(=S)Nc1ccc2c(c1)C(=O)OC21c2ccc(O)cc2Oc2cc(O)ccc21)NC(=O)[C@@H](N)Cc1c[nH]c2ccccc12)C(=O)N[C@H](C(=O)N[C@H](CCSC)C(N)=O)C(C)C [WK(FITC)YMVm]
[1]
  Span (% of WT), saturation binding: 85 ± 13 % of WT
[1]; mean ± s.e.m., n=3, SEM
  Kd: 92.2 ± 25.1 nM
[2]
  Span (% of WT), saturation binding: 54 ± 14 % of WT
[2]; mean ± s.e.m., n=3, SEM
  Kd: 42.5 ± 14.7 nM
[3]
  Span (% of WT), saturation binding: 76 ± 7 % of WT
[3]; mean ± s.e.m., n=3, SEM
  Kd: 28.0 ± 10.0 nM
[4]
  Span (% of WT), saturation binding: 68 ± 15 % of WT
[4]; mean ± s.e.m., n=4, SEM
  Kd: 25.7 ± 7.5 nM
[5]
  WK(FITC)YMVm binding: severely impaired
[6]
  Span (% of WT), saturation binding: 42 ± 8 % of WT
[6]; mean ± s.e.m., n=3, SEM
  Kd: 48.6 ± 17.6 nM
[7]
  WK(FITC)YMVm binding: complete loss
[8]
  Span (% of WT), saturation binding: 44 ± 4 % of WT
[8]; mean ± s.e.m., n=3, SEM
  Kd: 43.5 ± 16.0 nM
